Test results reported in US20230285514A1, “STAPLED LACTAM CO-AGONISTS OF THE GLUCAGON AND GLP-1 RECEPTORS” (Merck Sharp & Dohme LLC, priority 2019, published 2023).
*1 amine or outer side, *2 acyl side, *3 side chain or, on linkers, in order; H or OH if unused. Where a SMILES comes first, the peptide text is derived from it. Bridges are numbered along the chain shown (N, C = ends). Side-chain parts run from the residue outwards. [ ]: non-standard residue; d: D form. The star is where a group is joined. γGlu = O=C(O)[C@H](CCC(=O)[*:2])N[*:1]; Palmitoyl = CCCCCCCCCCCCCCCC(=O)*; Nle = CCCC[C@H](N)C(=O)O; Aib = CC(C)(N)C(=O)O

How the values were obtained:
[1] = target: T1, human GCGR (Homo sapiens, UniProt P47871); assay: cAMP activity assay, cells expressing human GCGR; format: cell-based; conditions: ratio of human GCGR EC50 to human GLP1R EC50
T1 construct: expressed in transfected cells
T1 sequence (P47871 26-477): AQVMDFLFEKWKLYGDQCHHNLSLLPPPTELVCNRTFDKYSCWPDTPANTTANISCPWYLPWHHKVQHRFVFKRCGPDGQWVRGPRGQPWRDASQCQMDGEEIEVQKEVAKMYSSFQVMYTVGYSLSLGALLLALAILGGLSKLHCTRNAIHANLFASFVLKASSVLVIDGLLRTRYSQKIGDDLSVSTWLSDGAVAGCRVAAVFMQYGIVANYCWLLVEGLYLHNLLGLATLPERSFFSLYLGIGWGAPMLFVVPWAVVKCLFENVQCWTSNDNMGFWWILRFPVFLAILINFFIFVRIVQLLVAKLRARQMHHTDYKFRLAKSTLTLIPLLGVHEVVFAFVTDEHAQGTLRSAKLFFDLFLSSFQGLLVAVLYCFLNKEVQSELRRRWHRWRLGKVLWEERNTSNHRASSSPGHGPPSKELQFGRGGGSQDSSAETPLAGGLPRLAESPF
Description: (§1) Activity of the peptides at the Glucagon receptor (GCGR) and GLP-1 receptor (GLP1R) was measured in a cAMP activity assay. Peptides were dissolved in 100% DMSO and serially diluted to generate 10 point titrations. The peptide solutions were then transferred into 384-well assay plates (150 nL/well). Assay ready frozen cells expressing human GLP1R or human GCGR were suspended in growth media consisting of DMEM medium (GIBCO), 10% FBS (GIBCO), 1×NEAA(GIBCO), 1×P/S (GIBCO), 10 ug/ml Blasticidin (GIBCO) and 200 μg/mL Hygromycin (GIBCO). […] The cell suspensions (15 μL) were then added to the assay plates containing the peptide solutions (30,000 cells/well for human GCGR; 10,000 cells/well for human GLP1R). […] Production of cAMP was determined using […] kits (DiscoverX) following manufacturer protocol. The plates were incubated for overnight at room temperature in the dark. Luminescence was measured using an EnVision Multilabel plate reader (Perkin Elmer). Native GLP-1 and Glucagon (Bachem) are used as control peptides.

[2] = target: T2, human GLP1R (Homo sapiens, UniProt P43220); assay: cAMP activity assay, cells expressing human GLP1R; format: cell-based; conditions: cAMP production, 1 hour, table does not say whether with or without 20% human serum, read-out: GLPIR EC50 human
T2 construct: expressed in transfected cells
T2 sequence (P43220 24-463): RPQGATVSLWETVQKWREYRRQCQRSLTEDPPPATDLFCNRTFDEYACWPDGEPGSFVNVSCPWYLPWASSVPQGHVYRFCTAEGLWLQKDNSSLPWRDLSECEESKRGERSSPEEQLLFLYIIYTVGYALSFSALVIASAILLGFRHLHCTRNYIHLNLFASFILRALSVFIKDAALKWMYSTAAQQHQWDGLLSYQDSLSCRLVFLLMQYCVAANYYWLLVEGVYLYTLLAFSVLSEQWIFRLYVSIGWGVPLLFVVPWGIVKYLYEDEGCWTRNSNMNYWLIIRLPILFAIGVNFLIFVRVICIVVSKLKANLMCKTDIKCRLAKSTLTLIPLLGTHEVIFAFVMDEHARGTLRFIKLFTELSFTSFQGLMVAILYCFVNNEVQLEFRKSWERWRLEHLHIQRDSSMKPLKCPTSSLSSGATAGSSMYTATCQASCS
Description: as §1

hGCGR/hGLPIR (hTone) [1]: 1.25 | EC50 [2]: 0.17 nM
Structure (SMILES): CCCCCCCCCCCCCCCC(=O)N[C@@H](CCC(=O)N[C@@H](CCC(=O)NCCCC[C@H](NC(=O)[C@H](CC(=O)O)NC(=O)[C@H](CO)NC(=O)[C@@H](NC(=O)[C@H](Cc1ccccc1)NC(=O)[C@@H](NC(=O)CNC(=O)[C@H](CCC(N)=O)NC(=O)C(C)(C)NC(=O)[C@@H](N)Cc1c[nH]cn1)[C@@H](C)O)[C@@H](C)O)C(=O)N[C@@H](CO)C(=O)N[C@@H](CCCCN)C(=O)N[C@@H](Cc1ccc(O)cc1)C(=O)N[C@@H](CC(C)C)C(=O)N[C@@H](CC(=O)O)C(=O)NC(C)(C)C(=O)N[C@H]1CCCCNC(=O)CC[C@@H](C(=O)N[C@@H](Cc2ccccc2)C(=O)N[C@H](C(=O)N[C@@H](CCC(N)=O)C(=O)N[C@@H](Cc2c[nH]c3ccccc23)C(=O)N[C@@H](CC(C)C)C(=O)N[C@@H](CCCC)C(=O)N[C@@H](CC(=O)O)C(=O)N[C@H](C(N)=O)[C@@H](C)O)C(C)C)NC(=O)[C@H](CCC(N)=O)NC(=O)[C@H](C)NC(=O)[C@H](C)NC1=O)C(=O)O)C(=O)O [SEQ ID NO: 16] (H-H[Aib]QGTFTSDK([γGlu-γGlu-Palmitoyl])SKYLD[Aib]KAAQEFVQWL[Nle]DT-NH2; lactam 17-21; N-terminus assumed)
